Results: patent US11311542B2, “Inhibitors of cyclin dependent kinase 7 (CDK7)” (Syros Pharmaceuticals, Inc., priority 2018, dated 2022)

Tests used:
[1] = biological target: CDK12 (aa686-1082)/Cyclin K complex (Homo sapiens, UniProt Q9NYV4); experiment: CDK12 kinase inhibition assay (Caliper/LabChip EZ Reader)
Procedure: Compounds described herein were assayed for inhibition of CDK7, CDK9, CDK12, and CDK2 activity at Biortus Biosciences (Jiangyin, Jiangsu Province, P.R. of China) using kinase assays for each CDK developed with a Caliper/LabChip EZ Reader (Perkin Elmer, Waltham, Mass.).
Furthermore, the CDK9 inhibition assay used CDK9/Cyclin T1 complex (8 nM) and “5-FAM-CDK9tide” peptide substrate (2 μM, synthesized fluorophore-labeled peptide with the following sequence: 5-FAM-GSRTPMY-NH2 (SEQ ID NO:2) where 5-FAM is defined above and NH2 signifies a C-terminal amide) with 10 mM MgCl2 in the buffer composition listed above. The CDK12 inhibition assay used CDK12 (aa686-1082)/Cyclin K complex (50 nM) and “5-FAM-CDK9tide” (2 μM) as defined above, with 2 mM MgCl2 in the buffer composition above. Additionally, the CDK2 inhibition assay used CDK2/Cyclin E1 complex (0.5 nM) and “5-FAM-CDK7tide” (2 μM; defined above) with 2 mM MgCl2 in the buffer composition above.
The incubation period at 27° C. for each CDK inhibition assay was chosen such that the fraction of phosphorylated peptide product produced in each assay, relative to the total peptide concentration, was approximately 20% (±5%) for the uninhibited kinase (35 min. for CDK7, 35 min. for CDK2, 3 hr. for CDK12, 15 min. for CDK9).

HCC70 cells = experiment: Inhibition of cell proliferation (CyQUANT Direct), HCC70; assay type: cell-based, human; settings: Homo sapiens, HCC70, 72-hour
Procedure: (§1) HCC70 and MB453 cells are cell lines derived from human triple negative breast cancer COV318 and COV504 cells are cell lines derived from human ovarian cancer. Representative compounds of the invention were tested at different concentrations (from 4 μM to 126.4 pM; 0.5 log serial dilutions) for their ability to inhibit the proliferation of each of these cell lines. Known CDK inhibitors dinaciclib or N-((1S,3R)-3-((5-chloro-4-(1H-indol-3-yl) pyrimidin-2-yl)amino)cyclohexyl)-5-((E)-4-(dimethylamino)but-2-enamido)picolinamide and triptolide were used as positive controls. Cells were seeded at approximately 2,000 cells/well and grown in ATCC-formulated RPMI-1640 Medium (ATCC 30-2001)+10% FBS. The cells were cultured at 37° C. in a humidified chamber in the presence of 5% CO2. Proliferation assays were conducted over a 72-hour time period. CyQUANT® Direct Cell Proliferation Assay (Life Technologies, Chicago, Ill. USA) was used to assess the anti-proliferative effects of the compounds following manufacturer's directions and utilizing the reagents supplied with the CyQUANT® Direct Cell kit.

MB453 cells = experiment: Inhibition of cell proliferation (CyQUANT Direct), MB453; assay type: cell-based, human; settings: Homo sapiens, MB453, 72-hour
Procedure: as §1

[2] = biological target: CDK7/Cyclin H/MAT1 complex (Homo sapiens, UniProt P50613); experiment: CDK7 kinase inhibition assay (Caliper/LabChip EZ Reader)
Chain of CDK7/Cyclin H/MAT1 complex (P50613 whole entry): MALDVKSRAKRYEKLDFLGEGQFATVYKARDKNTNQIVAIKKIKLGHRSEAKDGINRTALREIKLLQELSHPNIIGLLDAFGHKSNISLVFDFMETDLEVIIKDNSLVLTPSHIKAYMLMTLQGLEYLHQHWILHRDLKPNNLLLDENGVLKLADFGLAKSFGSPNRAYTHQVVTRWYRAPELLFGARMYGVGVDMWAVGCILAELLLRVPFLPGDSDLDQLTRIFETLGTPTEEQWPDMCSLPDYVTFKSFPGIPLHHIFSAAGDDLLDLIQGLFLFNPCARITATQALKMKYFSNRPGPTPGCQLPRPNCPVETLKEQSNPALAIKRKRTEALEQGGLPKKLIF
Chain of CDK7/Cyclin H/MAT1 complex (P51946 whole entry partner): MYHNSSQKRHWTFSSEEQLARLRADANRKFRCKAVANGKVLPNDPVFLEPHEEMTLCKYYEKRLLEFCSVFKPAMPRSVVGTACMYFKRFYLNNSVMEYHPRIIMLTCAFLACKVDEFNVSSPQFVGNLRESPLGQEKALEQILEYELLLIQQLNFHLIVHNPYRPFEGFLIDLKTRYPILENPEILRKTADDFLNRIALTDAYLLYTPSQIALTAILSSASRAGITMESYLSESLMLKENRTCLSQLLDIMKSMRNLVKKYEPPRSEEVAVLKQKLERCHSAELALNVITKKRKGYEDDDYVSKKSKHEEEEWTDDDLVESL
Chain of CDK7/Cyclin H/MAT1 complex (P51948 whole entry partner): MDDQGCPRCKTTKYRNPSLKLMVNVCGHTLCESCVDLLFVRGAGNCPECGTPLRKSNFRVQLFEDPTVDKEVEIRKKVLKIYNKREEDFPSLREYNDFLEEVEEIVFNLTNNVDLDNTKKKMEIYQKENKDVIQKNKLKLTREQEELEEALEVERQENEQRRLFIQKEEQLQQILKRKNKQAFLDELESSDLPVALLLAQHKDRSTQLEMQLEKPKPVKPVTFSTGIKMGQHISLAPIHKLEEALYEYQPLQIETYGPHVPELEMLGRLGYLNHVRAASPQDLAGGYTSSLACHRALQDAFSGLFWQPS

CDK9/Cyclin T1 complex = CDK9/Cyclin T1 complex (Homo sapiens, UniProt P50750); experiment: CDK9 kinase inhibition assay (Caliper/LabChip EZ Reader)
Chain of CDK9/Cyclin T1 complex (P50750 whole entry): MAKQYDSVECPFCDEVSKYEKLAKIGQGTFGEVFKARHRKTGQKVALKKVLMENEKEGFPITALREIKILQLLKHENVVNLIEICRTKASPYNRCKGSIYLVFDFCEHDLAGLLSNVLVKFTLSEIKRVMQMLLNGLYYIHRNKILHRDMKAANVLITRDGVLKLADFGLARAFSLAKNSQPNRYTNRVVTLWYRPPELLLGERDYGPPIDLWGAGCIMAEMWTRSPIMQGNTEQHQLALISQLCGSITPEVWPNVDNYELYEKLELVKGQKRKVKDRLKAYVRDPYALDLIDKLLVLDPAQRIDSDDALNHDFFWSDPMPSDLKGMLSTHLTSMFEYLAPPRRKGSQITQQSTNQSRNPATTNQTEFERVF
Chain of CDK9/Cyclin T1 complex (O60563 whole entry partner): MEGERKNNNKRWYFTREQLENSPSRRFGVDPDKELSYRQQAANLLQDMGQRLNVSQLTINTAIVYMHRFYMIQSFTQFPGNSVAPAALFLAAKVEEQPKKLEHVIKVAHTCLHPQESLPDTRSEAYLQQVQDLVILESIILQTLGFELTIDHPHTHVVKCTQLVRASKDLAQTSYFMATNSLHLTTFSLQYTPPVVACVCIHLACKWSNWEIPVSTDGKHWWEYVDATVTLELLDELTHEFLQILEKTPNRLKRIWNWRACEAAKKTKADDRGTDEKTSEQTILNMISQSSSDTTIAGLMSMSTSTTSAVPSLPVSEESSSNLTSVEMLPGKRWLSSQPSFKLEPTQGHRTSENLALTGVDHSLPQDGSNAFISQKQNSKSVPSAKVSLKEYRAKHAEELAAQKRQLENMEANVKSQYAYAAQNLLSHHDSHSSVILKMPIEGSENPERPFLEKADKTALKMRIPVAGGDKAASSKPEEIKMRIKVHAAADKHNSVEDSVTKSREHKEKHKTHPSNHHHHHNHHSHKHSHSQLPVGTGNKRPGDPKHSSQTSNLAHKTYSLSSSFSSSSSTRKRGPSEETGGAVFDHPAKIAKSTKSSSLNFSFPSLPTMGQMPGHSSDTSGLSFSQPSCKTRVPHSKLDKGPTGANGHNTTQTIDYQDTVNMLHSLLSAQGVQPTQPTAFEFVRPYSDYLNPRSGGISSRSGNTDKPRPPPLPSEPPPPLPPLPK

COV318 cells = experiment: Inhibition of cell proliferation (CyQUANT Direct), COV318; assay type: cell-based, human; settings: Homo sapiens, COV318, 72-hour
Procedure: as §1

COV504 cells = experiment: Inhibition of cell proliferation (CyQUANT Direct), COV504; assay type: cell-based, human; settings: Homo sapiens, COV504, 72-hour
Procedure: as §1

CDK2/Cyclin E1 complex = CDK2/Cyclin E1 complex (Homo sapiens, UniProt P24941); experiment: CDK2 kinase inhibition assay (Caliper/LabChip EZ Reader)

Chain of CDK12 (aa686-1082)/Cyclin K complex (Q9NYV4 686-1082): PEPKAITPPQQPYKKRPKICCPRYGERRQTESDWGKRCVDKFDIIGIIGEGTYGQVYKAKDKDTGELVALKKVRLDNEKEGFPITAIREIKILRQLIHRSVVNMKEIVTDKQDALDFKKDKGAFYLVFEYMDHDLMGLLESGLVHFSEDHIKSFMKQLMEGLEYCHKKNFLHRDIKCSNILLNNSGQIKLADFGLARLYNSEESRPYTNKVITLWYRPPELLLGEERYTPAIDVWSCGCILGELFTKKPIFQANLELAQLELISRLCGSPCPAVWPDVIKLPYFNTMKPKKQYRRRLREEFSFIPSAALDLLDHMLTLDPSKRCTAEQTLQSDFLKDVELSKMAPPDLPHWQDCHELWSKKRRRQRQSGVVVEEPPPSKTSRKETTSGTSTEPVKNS
Chain of CDK12 (aa686-1082)/Cyclin K complex (O75909 whole entry partner, the tested form may be a part): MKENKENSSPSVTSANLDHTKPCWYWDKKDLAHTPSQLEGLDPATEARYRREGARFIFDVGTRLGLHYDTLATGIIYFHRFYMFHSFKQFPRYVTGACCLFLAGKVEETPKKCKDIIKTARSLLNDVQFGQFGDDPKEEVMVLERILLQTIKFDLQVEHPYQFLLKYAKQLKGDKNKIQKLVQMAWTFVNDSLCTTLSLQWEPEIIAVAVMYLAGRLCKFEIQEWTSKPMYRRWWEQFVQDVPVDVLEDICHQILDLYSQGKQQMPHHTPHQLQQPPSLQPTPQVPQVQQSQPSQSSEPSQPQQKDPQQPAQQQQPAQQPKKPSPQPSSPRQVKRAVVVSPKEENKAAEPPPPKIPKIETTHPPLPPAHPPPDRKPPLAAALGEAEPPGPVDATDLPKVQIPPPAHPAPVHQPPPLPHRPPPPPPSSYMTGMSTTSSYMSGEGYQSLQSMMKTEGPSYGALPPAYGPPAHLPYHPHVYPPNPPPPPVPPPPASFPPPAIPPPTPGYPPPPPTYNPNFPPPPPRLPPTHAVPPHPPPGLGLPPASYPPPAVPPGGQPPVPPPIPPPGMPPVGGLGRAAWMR

| Structure (SMILES) | IC50 [1] | IC50 (HCC70 cells) | IC50 (MB453 cells) | IC50 [2] | IC50 (CDK9/Cyclin T1 complex) | IC50 (COV318 cells) | IC50 (COV504 cells) | IC50 (CDK2/Cyclin E1 complex) |
| --- | --- | --- | --- | --- | --- | --- | --- | --- |
| Cc1noc(C)c1-c1ccc2c(-c3nc(N[C@H]4CCCNC4)ncc3C(F)(F)F)n[nH]c2n1 [Compound 118, 4-[6-(3,5-dimethylisoxazol-4-yl)-1H-pyrazolo-[3,4-b]-pyridin-3-yl]-N-[(3S)-3-piperidyl]-5-(trifluoromethyl)pyrimidin-2-amine] | > 500 nM | < 100 nM | < 100 nM | < 30 nM | > 500 nM | 100 to 500 nM | < 100 nM | > 500 nM |
| Cc1nnc(C)n1-c1ccc2c(-c3nc(N[C@H]4CCCNC4)ncc3C(F)(F)F)c[nH]c2n1 [Compound 140, 4-[6-(3,5-dimethyl-1,2,4-triazol-4-yl)-1H-pyrrolo[2,3-b]pyridin-3-yl]-N-[(3S)-3-piperidyl]-5-(trifluoromethyl)pyrimidin-2-amine] | > 500 nM | > 1000 nM | 500 to 1000 nM | < 30 nM | > 500 nM | > 1000 nM | 100 to 500 nM | > 500 nM |
| C[C@@H]1CC[C@@H](Nc2ncc(C(F)(F)F)c(-c3c[nH]c4nc(-c5cnnn5C)ccc34)n2)CN1 [Compound 151, N-[(3R,6R)-6-methyl-3-piperidyl]-4-[6-(3-methyltriazol-4-yl)-1H-pyrrolo[2,3-b]pyridin-3-yl]-5-(trifluoromethyl)pyrimidin-2-amine] | > 500 nM | > 1000 nM | 500 to 1000 nM | < 30 nM | > 500 nM | > 1000 nM | > 1000 nM | > 500 nM |
| Cc1noc(C)c1-c1ccc2c(-c3nc(N[C@H]4CCC(C)(C)NC4)ncc3C(F)(F)F)c[nH]c2n1 [Compound 116] | > 500 nM | < 100 nM | < 100 nM | < 30 nM | > 500 nM | < 100 nM | < 100 nM | > 500 nM |
| Cc1noc(-c2ccc3c(-c4nc(N[C@H]5CCCNC5)ncc4C(F)(F)F)c[nH]c3n2)n1 [Compound 136, 4-[6-(3-methyl-1,2,4-oxadiazol-5-yl)-1H-pyrrolo[2,3-b]pyridin-3-yl]-N-[(3S)-3-piperidyl]-5-(trifluoromethyl)pyrimidin-2-amine] | > 500 nM | < 100 nM | < 100 nM | < 30 nM | > 500 nM | > 1000 nM | < 100 nM | > 500 nM |
| Cc1noc(C)c1-c1ccc2c(-c3nc(N[C@@H]4CNC[C@H](O)C4)ncc3C(F)(F)F)c[nH]c2c1 [Compound 105, (3R,5S)-5-[[4-[6-(3,5-dimethylisoxazol-4-yl)-1H-indol-3-yl]-5-(trifluoromethyl)pyrimidin-2-yl]amino]piperidin-3-ol] | > 500 nM | < 100 nM | 100 to 500 nM | < 30 nM | > 500 nM | 500 to 1000 nM | 100 to 500 nM | > 500 nM |
| Cc1nocc1-c1ccc2c(-c3nc(N[C@H]4CC[C@H](C)NC4)ncc3C(F)(F)F)c[nH]c2n1 [Compound 156, 4-[6-(3-methylisoxazol-4-yl)-1H-pyrrolo[2,3-b]pyridin-3-yl]-N-[(3S,6S)-6-methyl-3-piperidyl]-5-(trifluoromethyl)pyrimidin-2-amine] | > 500 nM | 500 to 1000 nM | 100 to 500 nM | < 30 nM | > 500 nM | > 1000 nM | 100 to 500 nM | > 500 nM |
| Cc1nc(-c2ccc3c(-c4nc(N[C@H]5CCCNC5)ncc4C(F)(F)F)c[nH]c3n2)no1 [Compound 139, 4-[6-(5-methyl-1,2,4-oxadiazol-3-yl)-1H-pyrrolo[2,3-b]pyridin-3-yl]-N-[(3S)-3-piperidyl]-5-(trifluoromethyl)pyrimidin-2-amine] | > 500 nM | < 100 nM | < 100 nM | < 30 nM | > 500 nM | > 1000 nM | < 100 nM | > 500 nM |
| CNC(=O)[C@H]1CNC[C@@H](Nc2ncc(C(F)(F)F)c(-c3c[nH]c4cc(-c5c(C)noc5C)ccc34)n2)C1 [Compound 113] | > 500 nM | 500 to 1000 nM | 100 to 500 nM | < 30 nM | > 500 nM | > 1000 nM | 500 to 1000 nM | > 500 nM |
| Cc1noc(C)c1-c1ccc2c(-c3nc(N[C@@H]4CNCC(C)(C)C4)ncc3C(F)(F)F)c[nH]c2c1 [Compound 102] | > 500 nM | < 100 nM | < 100 nM | < 30 nM | > 500 nM | 100 to 500 nM | < 100 nM | > 500 nM |
| CC1(C)CNC[C@@H](Nc2ncc(C(F)(F)F)c(-c3c[nH]c4cc(-c5nccs5)ccc34)n2)C1 [Compound 109] | > 500 nM | 100 to 500 nM | 100 to 500 nM | < 30 nM | > 500 nM | < 100 nM | < 100 nM | > 500 nM |
| Cc1noc(C)c1-c1ccc2c(-c3nc(N[C@H]4CCC(C)(C)NC4)ncc3C(F)(F)F)c[nH]c2c1 [Compound 104, (S)-4-(6-(3,5-dimethylisoxazol-4-yl)-1H-indol-3-yl)-N-(6,6-dimethylpiperidin-3-yl)-5-(trifluoromethyl)pyrimidin-2-amine] | > 500 nM | < 100 nM | < 100 nM | < 30 nM | > 500 nM | 100 to 500 nM | < 100 nM | > 500 nM |
| Cc1noc(C)c1-c1ccc2c(-c3nc(N[C@H]4CCC(C)(C)NC4)ncc3C(F)(F)F)n[nH]c2n1 [Compound 144] | > 500 nM | < 100 nM | < 100 nM | < 30 nM | > 500 nM | > 1000 nM | < 100 nM | > 500 nM |
| FC(F)(F)c1cnc(N[C@H]2CCCNC2)nc1-c1n[nH]c2cc(-c3nccs3)ccc12 [Compound 103] | 100 to 500 nM | 100 to 500 nM | < 100 nM | < 30 nM | > 500 nM | 100 to 500 nM | < 100 nM | > 500 nM |
| Cc1nc(-c2ccc3c(-c4nc(N[C@H]5CCCNC5)ncc4C(F)(F)F)n[nH]c3n2)no1 [Compound 168, 4-[6-(5-methyl-1,2,4-oxadiazol-3-yl)-1H-pyrazolo[3,4-b]pyridin-3-yl]-N-[(3S)-3-piperidyl]-5-(trifluoromethyl)pyrimidin-2-amine] | > 500 nM | < 100 nM | < 100 nM | < 30 nM | > 500 nM | < 100 nM | < 100 nM | > 500 nM |
| C[C@H]1CC[C@H](Nc2ncc(C(F)(F)F)c(-c3c[nH]c4nc(-c5nnnn5C)ccc34)n2)CN1 [Compound 165, N-[(3S,6S)-6-methyl-3-piperidyl]-4-[6-(1-methyltetrazol-5-yl)-1H-pyrrolo[2,3-b]pyridin-3-yl]-5-(trifluoromethyl)pyrimidin-2-amine] | > 500 nM | > 1000 nM | 500 to 1000 nM | 30 to 100 nM | > 500 nM | > 1000 nM | 500 to 1000 nM | > 500 nM |
| Cc1nsc(-c2ccc3c(-c4nc(N[C@H]5CCCNC5)ncc4C(F)(F)F)c[nH]c3n2)n1 [Compound 142] | > 500 nM | < 100 nM | < 100 nM | < 30 nM | > 500 nM | 500 to 1000 nM | < 100 nM | > 500 nM |
| Cn1nncc1-c1ccc2c(-c3nc(N[C@H]4CCCNC4)ncc3C(F)(F)F)c[nH]c2c1 [Compound 126] | > 500 nM | < 100 nM | < 100 nM | < 30 nM | > 500 nM | 100 to 500 nM | < 100 nM | > 500 nM |
| CNC(=O)[C@H]1CNC[C@@H](Nc2ncc(C(F)(F)F)c(-c3c[nH]c4nc(-c5c(C)noc5C)ccc34)n2)C1 [Compound 120] | > 500 nM | 100 to 500 nM | < 100 nM | < 30 nM | > 500 nM | 500 to 1000 nM | 100 to 500 nM | > 500 nM |
| Cc1nscc1-c1ccc2c(-c3nc(N[C@H]4CCCNC4)ncc3C(F)(F)F)c[nH]c2c1 [Compound 128] | > 500 nM | < 100 nM | < 100 nM | < 30 nM | > 500 nM | 100 to 500 nM | < 100 nM | > 500 nM |
